According to patent US20160375006A1, “USES OF PARALOG-SELECTIVE INHIBITORS OF GSK3 KINASES” (priority 2012, published 2016):
Read-outs that look alike come from different tables or passages of the source.

How the values were obtained:
[1] = molecular target: T1, GSK3β (Homo sapiens, UniProt P49841); conditions: GSK3β over GSK3α
Procedure: (§1) Reactions were terminated by the addition of 10 mM EDTA. Substrate and product were separated electrophoretically and fluorescence intensity of the substrate and product was determined by Labchip EZ Reader II (Caliper Life Sciences, MA). The kinase activity was measured as percent conversion. The reactions were performed in duplicate for each sample. […] The results were analyzed by Genedata Assay Analyzer. The percent inhibition was plotted against the compound concentration and the IC50 value was determined from the logistic dose-response curve fitting.

[2] = molecular target: T1, GSK3β; experiment: biochemical
Procedure: as §1

[3] = molecular target: GSK3α (Homo sapiens, UniProt P49840); experiment: biochemical
Sequence of GSK3α (P49840 whole entry): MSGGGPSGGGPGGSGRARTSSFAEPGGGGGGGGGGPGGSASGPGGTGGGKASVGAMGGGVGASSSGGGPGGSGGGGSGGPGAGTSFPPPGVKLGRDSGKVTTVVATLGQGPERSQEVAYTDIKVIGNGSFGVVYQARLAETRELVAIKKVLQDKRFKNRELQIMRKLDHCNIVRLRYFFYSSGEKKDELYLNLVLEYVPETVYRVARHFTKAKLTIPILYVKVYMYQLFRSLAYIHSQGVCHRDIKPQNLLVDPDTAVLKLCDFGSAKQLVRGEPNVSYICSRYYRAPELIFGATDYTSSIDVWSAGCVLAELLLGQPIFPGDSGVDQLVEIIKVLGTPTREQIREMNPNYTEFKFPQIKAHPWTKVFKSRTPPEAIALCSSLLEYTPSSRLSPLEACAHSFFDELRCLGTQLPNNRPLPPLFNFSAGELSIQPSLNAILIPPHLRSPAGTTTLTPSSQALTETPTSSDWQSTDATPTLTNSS

T1 sequence (P49841 whole entry): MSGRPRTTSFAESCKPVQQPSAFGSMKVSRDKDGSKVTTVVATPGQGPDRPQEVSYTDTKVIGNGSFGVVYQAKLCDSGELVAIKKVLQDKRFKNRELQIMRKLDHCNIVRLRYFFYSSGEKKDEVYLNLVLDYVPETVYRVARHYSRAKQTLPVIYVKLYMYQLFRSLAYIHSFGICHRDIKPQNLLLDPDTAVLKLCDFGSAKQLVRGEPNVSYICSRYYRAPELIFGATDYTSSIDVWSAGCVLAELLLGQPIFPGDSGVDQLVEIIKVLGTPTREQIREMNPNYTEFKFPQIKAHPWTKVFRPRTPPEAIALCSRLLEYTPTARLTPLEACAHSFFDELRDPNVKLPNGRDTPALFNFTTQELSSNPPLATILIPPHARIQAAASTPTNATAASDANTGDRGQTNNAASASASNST

GSK3β fold selectivity ([1]; Caliper assay) [fold] | IC50 [2] [nM] | IC50 [3] [nM] | GSK3β fold selectivity [1] [fold] | Compound
7.7 | 63 | 485 |  | CC(C)(C)Cc1[nH]nc2c1C1(CCc3cc(F)ccc31)C1=C(CC(C)(C)CC1=O)N2 (racemic) [Compound 284]
8.6 | 44 | 379 |  | CCC(C)(C)Cc1[nH]nc2c1C(C)(c1ccccc1)C1=C(CC(C)(C)CC1=O)N2 (racemic) [Compound 290]
3.5 | 439 | 1520 |  | CC1(C)CC(=O)C2=C(C1)Nc1n[nH]c(C3CCCC3)c1C2(C)c1ccccc1 (racemic) [Compound 300]
2.5 | 746 | 1850 |  | CC1(C)CC(=O)C2=C(C1)Nc1n[nH]c(C3CCCCC3)c1C2(C)c1ccccc1 (racemic) [Compound 303]
7.8 | 10 | 78 | 6.4 | CC1(C)CC(=O)C2=C(C1)Nc1n[nH]c(C3CC(F)(F)C3)c1[C@]2(C)c1ccccc1 (stereo in doubt) [Compound 127]
2.2 | 12300 | 26900 |  | CC[C@]1(c2ccccc2)C2=C(CC3(COC3)CC2=O)Nc2n[nH]cc21 (stereo in doubt) [Compound 238]
2.9 | 30 | 86 |  | CC1(C)CC(=O)C2=C(C1)Nc1n[nH]c(C3CC(F)(F)C3)c1[C@]2(C)c1cccc(C(F)(F)F)c1 (stereo in doubt) [Compound 248]
14.9 | 84 | 1250 |  | COc1ccccc1[C@H]1C2=C(CC(C)(C)CC2=O)Nc2n[nH]c(C3CC(F)(F)C3)c21 (stereo in doubt) [Compound 251]
8.3 | 23 | 191 |  | COc1ccccc1[C@@H]1C2=C(CC(C)(C)CC2=O)Nc2n[nH]c(C3CC(F)(F)C3)c21 (stereo in doubt) [Compound 252]
10.2 | 104 | 1060 |  | CC(C)(C)Cc1[nH]nc2c1[C@](C)(c1ccc(F)cc1)C1=C(CC(C)(C)CC1=O)N2 (stereo in doubt) [Compound 276]
16.5 | 1.7 | 28 |  | CC(C)(C)Cc1[nH]nc2c1[C@@]1(CCc3ccccc31)C1=C(CC(C)(C)CC1=O)N2 (stereo in doubt) [Compound 282]
9.0 | 212 | 1910 |  | CC(C)(C)Cc1[nH]nc2c1[C@]1(CCc3ccccc31)C1=C(CC(C)(C)CC1=O)N2 (stereo in doubt) [Compound 283]
6.4 | 52 | 332 |  | CCC(C)(C)Cc1[nH]nc2c1[C@](C)(c1ccccc1)C1=C(CC(C)(C)CC1=O)N2 (stereo in doubt) [Compound 291]
4.0 | 3020 | 12000 |  | CCC(C)(C)Cc1[nH]nc2c1[C@@](C)(c1ccccc1)C1=C(CC(C)(C)CC1=O)N2 (stereo in doubt) [Compound 292]
2.3 | 24 | 56 |  | CC(C)c1[nH]nc2c1[C@](C)(c1ccccc1)C1=C(CC(C)(C)CC1=O)N2 (stereo in doubt) [Compound 297]
5.2 | 5280 | 27500 |  | CC1(C)CC(=O)C2=C(C1)Nc1n[nH]c(C3CCCC3)c1[C@@]2(C)c1ccccc1 (stereo in doubt) [Compound 302]
2.4 | 977 | 2380 |  | CC1(C)CC(=O)C2=C(C1)Nc1n[nH]c(C3CCCCC3)c1[C@]2(C)c1ccccc1 (stereo in doubt) [Compound 304]
5.8 | 66 | 386 |  | CC(C)c1[nH]nc2c1[C@](C)(c1ccccc1F)C1=C(CC(C)(C)CC1=O)N2 (stereo in doubt) [Compound 312]

Further lines, the molecule ahead of its results:

Compound | GSK3β fold selectivity ([1]; Caliper assay) [fold] | IC50 [2] [nM] | IC50 [3] [nM] | GSK3β fold selectivity [1] [fold]
CC(C)(C)Cc1[nH]nc2c1C(C)(c1ccc(F)cc1)C1=C(CC(C)(C)CC1=O)N2 (racemic) [Compound 275] | 6.7 | 215 | 1430 | 
COc1ccccc1C1C2=C(CC(C)(C)CC2=O)Nc2n[nH]c(CC(C)(C)C)c21 (racemic) [Compound 278] | 13.3 | 19 | 253 | 
CC(C)(C)Cc1[nH]nc2c1C1(CCc3ccccc31)C1=C(CC(C)(C)CC1=O)N2 (racemic) [Compound 281] | 20.5 | 4 | 82 | 
CC1(C)CC(=O)C2=C(C1)Nc1n[nH]c(C3CC(F)(F)C3)c1[C@@]2(C)c1ccccc1 (stereo in doubt) [Compound 128] | 17.6 | 468 | 8220 | 17.6
CC[C@@]1(c2cccc(C(C)(C)C)c2)C2=C(CC(C)(C)CC2=O)Nc2n[nH]cc21 (stereo in doubt) [Compound 226] | 4.3 | 12 | 51 | 
CC(C)c1[nH]nc2c1[C@@]1(CCc3ccccc31)C1=C(CC(C)(C)CC1=O)N2 (stereo in doubt) [Compound 242] | 5.1 | 16 | 81 | 
CC(C)c1[nH]nc2c1[C@]1(CCc3ccccc31)C1=C(CC(C)(C)CC1=O)N2 (stereo in doubt) [Compound 243] | 6.6 | 27 | 178 | 
CC1(C)CC(=O)C2=C(C1)Nc1n[nH]c(C3CC(F)(F)C3)c1[C@@]2(C)c1cccc(C(F)(F)F)c1 (stereo in doubt) [Compound 249] | 3.1 | 1550 | 4790 | 
COc1ccccc1[C@]1(C)C2=C(CC(C)(C)CC2=O)Nc2n[nH]c(C3CC(F)(F)C3)c21 (stereo in doubt) [Compound 254] | 3.7 | 2520 | 9330 | 
COc1ccccc1[C@@]1(C)C2=C(CC(C)(C)CC2=O)Nc2n[nH]c(C3CC(F)(F)C3)c21 (stereo in doubt) [Compound 255] | 2.1 | 13400 | 28000 | 
CC(C)(C)Cc1[nH]nc2c1[C@](C)(c1ccccc1)C1=C(CC(C)(C)CC1=O)N2 (stereo in doubt) [Compound 272] | 14.3 | 15 | 215 | 
CC(C)(C)Cc1[nH]nc2c1[C@@](C)(c1ccccc1)C1=C(CC(C)(C)CC1=O)N2 (stereo in doubt) [Compound 273] | 6.4 | 1050 | 6700 | 
CC(C)(C)Cc1[nH]nc2c1[C@@](C)(c1ccc(F)cc1)C1=C(CC(C)(C)CC1=O)N2 (stereo in doubt) [Compound 277] | 3.0 | 949 | 2800 | 
COc1ccccc1[C@H]1C2=C(CC(C)(C)CC2=O)Nc2n[nH]c(CC(C)(C)C)c21 (stereo in doubt) [Compound 279] | 9.6 | 14 | 135 | 
COc1ccccc1[C@@H]1C2=C(CC(C)(C)CC2=O)Nc2n[nH]c(CC(C)(C)C)c21 (stereo in doubt) [Compound 280] | 5.6 | 1910 | 10600 | 
CC(C)(C)Cc1[nH]nc2c1[C@@]1(CCc3cc(F)ccc31)C1=C(CC(C)(C)CC1=O)N2 (stereo in doubt) [Compound 285] | 22.6 | 11 | 249 | 
CC(C)(C)Cc1[nH]nc2c1[C@]1(CCc3cc(F)ccc31)C1=C(CC(C)(C)CC1=O)N2 (stereo in doubt) [Compound 286] | 6.0 | 790 | 4760 | 
CC(C)(C)Cc1[nH]nc2c1[C@@]1(CCOc3ccccc31)C1=C(CC(C)(C)CC1=O)N2 (stereo in doubt) [Compound 288] | 7.7 | 18 | 139 | 
CC(C)(C)Cc1[nH]nc2c1[C@]1(CCOc3ccccc31)C1=C(CC(C)(C)CC1=O)N2 (stereo in doubt) [Compound 289] | 5.6 | 530 | 2980 | 
CCC(C)(C)Cc1[nH]nc2c1[C@@]1(CCc3cc(F)ccc31)C1=C(CC(C)(C)CC1=O)N2 (stereo in doubt) [Compound 293] | 11.3 | 127 | 1440 | 
CCC(C)(C)Cc1[nH]nc2c1[C@]1(CCc3cc(F)ccc31)C1=C(CC(C)(C)CC1=O)N2 (stereo in doubt) [Compound 294] | 6.1 | 785 | 4760 | 
CC(C)c1[nH]nc2c1[C@@](C)(c1ccccc1)C1=C(CC(C)(C)CC1=O)N2 (stereo in doubt) [Compound 298] | 2.1 | 229 | 479 | 
CC1(C)CC(=O)C2=C(C1)Nc1n[nH]c(C3CCCC3)c1[C@]2(C)c1ccccc1 (stereo in doubt) [Compound 301] | 2.9 | 372 | 1060 | 
CC1(C)CC(=O)C2=C(C1)Nc1n[nH]c(C3CCCCC3)c1[C@@]2(C)c1ccccc1 (stereo in doubt) [Compound 305] | 3.4 | 5060 | 17400 | 
CC(C)Cc1[nH]nc2c1[C@](C)(c1ccccc1)C1=C(CC(C)(C)CC1=O)N2 (stereo in doubt) [Compound 307] | 5.8 | 41 | 237 | 
CC(C)Cc1[nH]nc2c1[C@@](C)(c1ccccc1)C1=C(CC(C)(C)CC1=O)N2 (stereo in doubt) [Compound 308] | 5.5 | 4040 | 22300 | 
